Measured values published in article PMC6270001, “Synthesis and Antiviral Activity of N-Phenylbenzamide Derivatives, a Novel Class of Enterovirus 71 Inhibitors” (Molecules, 2013).

Tests used:
[1] = test system: EV 71 strain SZ-98 (genotype C4); assay: Anti EV 71 activity assay (CPE, Reed & Muench) in Vero cells, strain SZ-98; assay type: cell-based, Enterovirus 71; conditions: for IC50: Enterovirus A, Vero, EV 71 strain SZ-98, Vero cells, 100 TCID50, CPE, average ± SD, n=3; for SI SZ-98: selectivity index TC50/IC50, strain SZ-98, "-" stands for no antiviral selectivity
Protocol: (§1) The EV 71 was divided into three genotypes A, B and C based on nucleotide sequence comparisons, and genotypes B and C were subdivided into B1-B5 and C1-C5 [6, 10]. Genotype C is the most common genotype found in mainland China, especially the C4 subgenotype. Consequently, the intermediate compounds 1a, 1c and 1e, and the final products 2a–c, 3a–g, and 5a–f were evaluated for their anti-EV 71 activity in Vero cells against genotypes C4 (strains SZ-98 and JS-52-3), C2 (strain H) and A (strain BrCr). […] The IC50 values were calculated by the Reed and Muench method, and the cytotoxicity was monitored by the CPE method.
(§2) Vero cells were purchased from the American Type Culture Collection and cultured in Minimum Essential Medium (MEM) supplemented with 10% Fetal Bovine Serum (FBS) and antibiotics (100 U/mL penicillin G, 100 μg/mL streptomycin). Enterovirus 71 (EV 71) strain SZ-98 was kindly provided by Dr. Qi Jin, Institute of Pathogen Biology, Chinese Academy of Medical Science and Peking Union Medical School. Enterovirus 71 (EV 71) strain BrCr (VR-1775) was purchased from the American Type Culture Collection. Enterovirus 71 (EV 71) strain JS-52-3 was kindly provided by Dr. Xiang-zhong Ye, Beijing Wantai Biological Pharmacy Enterprise Co., Ltd. All Enterovirus 71 strains were propagated in Vero cells.
(§3) All compounds were dissolved in DMSO at 20 mg/mL as a stock solution and further diluted in culture medium prior to use. The initial concentration in all cytotoxicity assay was 200 µg/mL, and inhibition assay for anti-EV71 experiments was from maximum non-toxic concentration, and proceeded serially 3-fold dilution with culture medium. All cytotoxicity and activity assay for each compound was repeated for three times, and the data was indicated as average ± SD.
(§4) Confluent Vero cells grown in 96-well microplates were infected respectively with 100 median tissue culture infective dose (TCID50) EV 71. After 1 h adsorption at 37 °C, the monolayers were washed by PBS and incubated at 37 °C in the maintenance medium with or without different concentrations of test compounds.

[2] = test system: 16 enteroviruses; conditions: cited from earlier work
[3] = test system: EV 71 strain BrCr (genotype A); assay: Anti EV 71 activity assay (CPE, Reed & Muench) in Vero cells, strain BrCr; assay type: cell-based, Enterovirus 71; conditions: for IC50: Enterovirus A, Vero, EV 71 strain BrCr, Vero cells, 100 TCID50, CPE, average ± SD, n=3; for SI BrCr: selectivity index TC50/IC50, strain BrCr, "-" stands for no antiviral selectivity
Protocol: as §1, §2, §3, §4

[4] = test system: Vero cells; assay: Cytotoxicity determination in Vero cells monitored by cytopathic effect (CPE); assay type: cell-based; conditions: 48 h, Reed & Muench, concentration that inhibits 50% cellular growth, average ± SD, n=3
Protocol: as §2, with “Enterovirus 71 (EV 71) strain BrCr (VR-1775) was purchased from the American Type Culture Collection.” left out
as §3
The cytotoxicity of compounds in the presence of Vero cells was monitored by cytopathic effect (CPE). Vero cells (2.5 × 10^4/well) were plated into a 96-well plate. A total of 24 h later, the monolayer cells were incubated in the presence of various concentrations of test compounds. […] The median toxic concentration (TC50) was calculated by Reed & Muench analyses.

[5] = test system: EV 71 strain H (genotype C2); assay: Anti EV 71 activity assay (CPE, Reed & Muench) in Vero cells, strain H; assay type: cell-based, Enterovirus 71; conditions: for IC50: Enterovirus A, Vero, EV 71 strain H (C2 genotype), Vero cells, 100 TCID50, CPE, average ± SD, n=3; for SI H: selectivity index TC50/IC50, strain H, "-" stands for no antiviral selectivity
Protocol: as §1, §2, §3, §4

[6] = test system: EV 71 strain JS-52-3 (genotype C4); assay: Anti EV 71 activity assay (CPE, Reed & Muench) in Vero cells, strain JS-52-3; assay type: cell-based, Enterovirus 71; conditions: for IC50: Enterovirus A, Vero, EV 71 strain JS-52-3, Vero cells, 100 TCID50, CPE, average ± SD, n=3; for SI JS-52-3: selectivity index TC50/IC50, strain JS-52-3, "-" stands for no antiviral selectivity
Protocol: as §1, §2, §3, §4

[7] = test system: EV 71 strains SZ-98, JS-52-3, H, BrCr; assay: Anti EV 71 activity assay in Vero cells, summary over the four strains tested; assay type: cell-based, Enterovirus 71; conditions: TC50/IC50, range over the EV 71 strains tested
Protocol: as §1, §2, §3, §4

Structure (SMILES) | IC50 [1] | concentration effective against 80% of 16 enteroviruses tested [2] | IC50 [3] | TC50 [4] | IC50 [5] | IC50 [6] | selectivity index (SI) values (range over strains) [7] | SI SZ-98 [1] | SI BrCr [3] | melting point | SI H [5] | SI JS-52-3 [6]
CCOC(=O)c1ccc(OCCC2CCN(c3ccc(C)nn3)CC2)cc1 [Pirodavir, pirodavir, reference compound] | 1.2 ± 0.2 µM | 1.3 µg/mL | 1 ± 0.2 µM | 31 ± 2.2 µM | 0.6 ± 0.1 µM | 1 ± 0.2 µM |  |  |  |  |  | 
COc1ccc(C(=O)Nc2ccc(Cl)cc2)cc1N [Compound 1c, 3-Amino-N-(4-chlorophenyl)-4-methoxybenzamide] | ~15 µM |  | 56 ± 4.2 µM | 520 ± 29 µM | 34 ± 3.6 µM | 46 ± 5.7 µM | 10–36 | 36 | 10 | 152 to 154 °C | 16 | 12
COc1ccc(C(=O)Nc2ccc(Br)cc2)cc1N [Compound 1e, 3-Amino-N-(4-bromophenyl)-4-methoxybenzamide] | 12 ± 1.1 µM |  | 9.1 ± 1.4 µM | 620 ± 0.0 µM | 5.7 ± 0.8 µM | 9.8 ± 0.4 µM | 51–110 | 51 | 68 | 190 to 192 °C | 110 | 64
